Among the test systems are COLO 205 colon; HCT-15 colon; HT29 colon; MOLT-4 leukemia; NCI-H23 lung; OVCAR-3 ovarian; SF-268 CNS; SK-MEL-2 melanoma; SK-OV-3 ovarian; ACHN renal.
Assay in all cases: inhibition of tumour cell growth, NCI panel, 48 h

Data on 16 molecules can be found in PubChem BioAssay (NCI).

The structures appear in SMILES notation.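 Assay format: 96-well plates, 48-hour exposure. GI50 = concentration required for 50% inhibition of growth. The concentration for full growth arrest is given as TGI.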

With `O=C1OC(=O)c2c1c(-c1ccccc1)nc1ccccc21`, the TGI in the assay with COLO 205 colon, in the assay with HCT-15 colon, with HT29 colon, in the assay on MOLT-4 leukemia, with NCI-H23 lung and in the assay on OVCAR-3 ovarian was more than 100 µM in each case. In addition, the TGI with SF-268 CNS, in the assay with SK-MEL-2 melanoma and in the assay on SK-OV-3 ovarian was more than 100 µM throughout.

`Fc1ccc(/C=N/n2c(-c3ccc(F)c(Cl)c3)n[nH]c2=S)cc1`: the GI50 was 37.3 µM with COLO 205 colon; 35.3 µM with HT29 colon; 25.4 µM in the assay on MOLT-4 leukemia; 18.8 µM in the assay with NCI-H23 lung; 18.3 µM in the assay on OVCAR-3 ovarian; 19.8 µM in the assay on SF-268 CNS. Besides, the GI50 was 38.7 µM in the assay on SK-MEL-2 melanoma and 22 µM in the assay on SK-OV-3 ovarian. In addition, the TGI is more than 100 µM in the assay on COLO 205 colon; more than 100 µM with HT29 colon; 94.6 µM in the assay with MOLT-4 leukemia; 38.2 µM with NCI-H23 lung; 37.3 µM in the assay on OVCAR-3 ovarian; 42.1 µM in the assay on SF-268 CNS. The TGI was more than 100 µM in the assay on SK-MEL-2 melanoma and 38.5 µM in the assay on SK-OV-3 ovarian.

Consider `C[CH2][Hg][S]c1ccccc1C(=O)O`, for which the GI50 with ACHN renal is 1.49 µM; in the assay on COLO 205 colon, 1.24 µM; with HCT-15 colon it was 1.07 µM; with MOLT-4 leukemia, 2.43 µM; with NCI-H23 lung, 1.18 µM; in the assay with OVCAR-3 ovarian it was 0.871 µM. Moreover, the results for the GI50 in the assay on SF-268 CNS and in the assay on SK-OV-3 ovarian were 1.68 µM and 2.77 µM, respectively. Further, the TGI in the assay with ACHN renal was determined as 2.83 µM; with COLO 205 colon it was 2.86 µM; in the assay with HCT-15 colon, 2.52 µM; with MOLT-4 leukemia, 6.7 µM; with NCI-H23 lung, 2.7 µM; with OVCAR-3 ovarian, 2.09 µM. Besides, the TGI in the assay with SF-268 CNS amounted to 3.18 µM; in the assay with SK-OV-3 ovarian, 8.21 µM.

As to `CC(C)(C)c1cc2nc(c1)C(C(F)(F)F)(C(F)(F)F)OB(Br)OC2(C(F)(F)F)C(F)(F)F`, the TGI in the assay with COLO 205 colon was 0.364 µM; in the assay on HCT-15 colon, 13.8 µM; with HT29 colon it was 12.1 µM; with MOLT-4 leukemia, 0.28 µM; in the assay on NCI-H23 lung it was 17.2 µM; in the assay with SF-268 CNS it was 17.8 µM. Moreover, the figures for the TGI with SK-MEL-2 melanoma and with SK-OV-3 ovarian were 11.2 µM and 10.7 µM, respectively.

With `Cc1ccncc1C(N)=O`, the GI50 in the assay on ACHN renal, in the assay with COLO 205 colon, in the assay with HCT-15 colon, in the assay with HT29 colon, in the assay with MOLT-4 leukemia and with NCI-H23 lung was more than 100 µM in each case. The GI50 in the assay on OVCAR-3 ovarian, in the assay with SF-268 CNS and in the assay with SK-OV-3 ovarian was more than 100 µM throughout. The TGI in the assay with ACHN renal, with COLO 205 colon, with HCT-15 colon, in the assay on HT29 colon, with MOLT-4 leukemia and in the assay on NCI-H23 lung was more than 100 µM each time. Further, the TGI in the assay on OVCAR-3 ovarian, in the assay on SF-268 CNS and in the assay with SK-OV-3 ovarian was more than 100 µM throughout.

`N#CCCNc1nonc1-c1nc2ccccc2n1CC(=O)c1ccc(NC(=O)[C@@H](N)CCCCN)cc1`: the GI50 in the assay with ACHN renal was 0.0583 µM; in the assay on COLO 205 colon it was 0.0273 µM; in the assay with HCT-15 colon it was 0.0356 µM; in the assay on HT29 colon it was 0.0326 µM; in the assay on MOLT-4 leukemia, 0.0451 µM; with NCI-H23 lung, 0.0483 µM. Besides, the GI50 in the assay on OVCAR-3 ovarian is 0.0235 µM; with SF-268 CNS, 0.071 µM; with SK-OV-3 ovarian, 0.0313 µM. The TGI with ACHN renal was more than 100 µM; in the assay on COLO 205 colon it was 0.0709 µM; with HCT-15 colon it was more than 100 µM; with HT29 colon, more than 33.3 µM; with MOLT-4 leukemia it was more than 100 µM; with OVCAR-3 ovarian, 0.0542 µM. The TGI in the assay with SF-268 CNS and in the assay with SK-OV-3 ovarian was more than 100 µM in each case.

In the case of `O=C(/C=C/c1ccc(Cl)c(Cl)c1)c1cccc2ccccc12`, the TGI in the assay on ACHN renal amounted to 30 µM; with COLO 205 colon it was 26.2 µM; with HCT-15 colon, 7.12 µM; in the assay on HT29 colon it was 12.1 µM; in the assay with NCI-H23 lung, 22.5 µM; in the assay on OVCAR-3 ovarian it was 18.6 µM. In addition, the TGI in the assay with SF-268 CNS turned out to be 14.2 µM; with SK-OV-3 ovarian, 35.2 µM.

`COc1ccc(NC(=O)C(=O)/C=C(\O)c2ccccc2)cc1`: the TGI in the assay on COLO 205 colon was more than 10 µM; with HCT-15 colon, more than 10 µM; in the assay on HT29 colon, more than 10 µM; with MOLT-4 leukemia, 4.18 µM; in the assay on NCI-H23 lung, more than 10 µM; in the assay with SF-268 CNS it was more than 10 µM. The molecule further gave a TGI in the assay with SK-OV-3 ovarian of more than 10 µM.

`CC1c2ccccc2CCN1c1ccc(CO)c(Cl)c1` (centres undefined): the GI50 with ACHN renal was 22.6 µM; with COLO 205 colon it was 0.19 µM; in the assay on HCT-15 colon, 13.3 µM; with HT29 colon it was 0.383 µM; in the assay with MOLT-4 leukemia it was 24.6 µM; with NCI-H23 lung it was 21.8 µM. Besides, the GI50 in the assay on OVCAR-3 ovarian was 0.171 µM; in the assay with SF-268 CNS it was 40.8 µM; in the assay with SK-OV-3 ovarian, 1.61 µM. The TGI in the assay on ACHN renal is more than 81 µM; with COLO 205 colon, 0.626 µM; with HCT-15 colon it was 53.3 µM; in the assay with HT29 colon, 25.2 µM; in the assay with MOLT-4 leukemia it was 77.7 µM; in the assay on NCI-H23 lung, more than 72.3 µM. In addition, the results for the TGI with OVCAR-3 ovarian, in the assay on SF-268 CNS and in the assay with SK-OV-3 ovarian were 3.36 µM, more than 100 µM and 10.7 µM, respectively.

Take `ClC1=C(Cl)C(Cl)(Cl)c2c3c(c4c(c21)C(Cl)(Cl)C(Cl)=C4Cl)C(Cl)(Cl)C(Cl)=C3Cl`: the TGI in the assay with ACHN renal, in the assay with COLO 205 colon, with HCT-15 colon, in the assay on HT29 colon, in the assay with MOLT-4 leukemia and in the assay with NCI-H23 lung was more than 100 µM each time. Further, the TGI in the assay on OVCAR-3 ovarian, with SF-268 CNS and in the assay on SK-OV-3 ovarian was more than 100 µM each time.

In the case of `CN1CCc2nc3sc(C(N)=O)c(N)c3c(-c3cccs3)c2C1`, the GI50 in the assay with COLO 205 colon is 1.43 µM; with HCT-15 colon it was 3.31 µM; with HT29 colon, 3.11 µM; with MOLT-4 leukemia it was 2.89 µM; in the assay on NCI-H23 lung, 2.87 µM; with OVCAR-3 ovarian it was 2.16 µM. For the same molecule, the GI50 in the assay with SF-268 CNS is 3.85 µM; in the assay with SK-MEL-2 melanoma, 2.67 µM; with SK-OV-3 ovarian, 3.35 µM. For the same molecule, the TGI in the assay with COLO 205 colon is 3.66 µM; in the assay with HCT-15 colon it was more than 100 µM; with HT29 colon it was 70.9 µM; with MOLT-4 leukemia, 48.4 µM; in the assay with NCI-H23 lung, 12.6 µM; in the assay with OVCAR-3 ovarian, 6.23 µM. Also, the TGI is more than 100 µM in the assay on SF-268 CNS, 6.22 µM with SK-MEL-2 melanoma and more than 100 µM in the assay with SK-OV-3 ovarian.

With `NNc1nnc(-c2nnc(NN)o2)o1`, the TGI in the assay on ACHN renal, in the assay with COLO 205 colon, in the assay on HCT-15 colon, in the assay on HT29 colon, with MOLT-4 leukemia and in the assay with NCI-H23 lung was more than 10 µM in each case. The TGI in the assay on OVCAR-3 ovarian and in the assay with SF-268 CNS was more than 10 µM in each case.

`C[n+]1c2ccccc2nc2c(N)cc(N)cc21`: the GI50 in the assay with ACHN renal was 45.6 µM; in the assay on COLO 205 colon it was 3.49 µM; in the assay with HCT-15 colon, 57.6 µM; in the assay with HT29 colon, 15.3 µM; in the assay on MOLT-4 leukemia, 3 µM; with NCI-H23 lung it was 5.13 µM. The GI50 in the assay on OVCAR-3 ovarian was 3.69 µM; in the assay on SF-268 CNS it was 0.712 µM; in the assay with SK-OV-3 ovarian, 25.8 µM. The TGI with ACHN renal is more than 100 µM; in the assay on COLO 205 colon it was 19.4 µM; with HCT-15 colon, more than 100 µM; in the assay on HT29 colon, more than 100 µM; in the assay with MOLT-4 leukemia, 22.6 µM; in the assay on NCI-H23 lung, 26.6 µM. Also, the TGI in the assay on OVCAR-3 ovarian is 22.8 µM; in the assay on SF-268 CNS, 13.6 µM; with SK-OV-3 ovarian, more than 100 µM.

Regarding `O=Nc1c(-c2c(O)[nH]c3ncccc23)[nH]c2ccccc12`, the GI50 in the assay on ACHN renal was 2.58 µM; with COLO 205 colon, 28.4 µM; with HCT-15 colon it was 3.92 µM; in the assay with HT29 colon, more than 94.2 µM; in the assay with MOLT-4 leukemia it was 3.4 µM; in the assay with NCI-H23 lung it was more than 100 µM. In addition, the GI50 in the assay with OVCAR-3 ovarian and with SF-268 CNS was more than 100 µM in each case. For the same molecule, the TGI with ACHN renal, in the assay on COLO 205 colon, in the assay with HCT-15 colon, in the assay with HT29 colon, with MOLT-4 leukemia and in the assay with NCI-H23 lung was more than 100 µM throughout. The TGI in the assay with OVCAR-3 ovarian and in the assay with SF-268 CNS was more than 100 µM in each case.

Regarding `COc1ccc(C(=O)/C=C/c2ccc(OCC#N)cc2)cc1`, the TGI was more than 100 µM in the assay on ACHN renal; 40.5 µM in the assay on COLO 205 colon; 54.7 µM in the assay on HCT-15 colon; more than 100 µM in the assay with HT29 colon; 77.1 µM in the assay on MOLT-4 leukemia; 49.6 µM in the assay with NCI-H23 lung. Further, the TGI in the assay on OVCAR-3 ovarian, in the assay with SF-268 CNS and in the assay on SK-OV-3 ovarian was more than 100 µM in each case.

As for `Cc1ccc(NC(=O)C(=O)C(C(=O)/C=C/c2ccccc2)C2OC(=O)c3ccccc32)c(C)c1` (centres undefined), the TGI in the assay on ACHN renal, in the assay on COLO 205 colon, in the assay with HCT-15 colon, in the assay with HT29 colon, in the assay on MOLT-4 leukemia and with NCI-H23 lung was more than 100 µM throughout. Further, the TGI in the assay with OVCAR-3 ovarian, in the assay on SF-268 CNS and in the assay with SK-OV-3 ovarian was more than 100 µM each time.
